Results taken from ChEMBL document CHEMBL1133642, “Difluoro ketone peptidomimetics suggest a large S1 pocket for Alzheimer's gamma-secretase: implications for inhibitor design” (J Med Chem, 2000).

test: Concentration required for 50% inhibition of Amyloid beta protein production in Amyloid precursor protein (APP)-transfected Chinese hamster ovary(CHO) cells; assay type: functional; details: Cricetulus griseus

Row | Structure (SMILES) | IC50 [µM]
1 | CCC(C)[C@H](NC(=O)[C@@H](NC(=O)C(F)(F)C(=O)[C@H](C)NC(=O)[C@@H](NC(=O)OC(C)(C)C)C(C)C)C(C)C)C(=O)OCc1ccccc1 (stereo partly specified) | 4
2 | CCC(C)[C@H](NC(=O)[C@@H](NC(=O)C(F)(F)C(=O)[C@H](CC1CCCCC1)NC(=O)[C@@H](NC(=O)OC(C)(C)C)C(C)C)C(C)C)C(=O)OC (stereo partly specified) | 4
3 | CCC(C)[C@H](NC(=O)[C@@H](NC(=O)C(F)(F)C(=O)[C@H](C)NC(=O)[C@@H](NC(=O)OC(C)(C)C)C(C)C)C(C)C)C(=O)NC (stereo partly specified) | < 100
4 | CCOC(=O)[C@@H](NC(=O)[C@@H](NC(=O)C(F)(F)C(=O)[C@H](C)NC(=O)[C@@H](NC(=O)OC(C)(C)C)C(C)C)C(C)C)C(C)CC (stereo partly specified) | 9
5 | CCC(C)[C@H](NC(=O)[C@@H](NC(=O)C(F)(F)C(=O)[C@@H](NC(=O)[C@@H](NC(=O)OC(C)(C)C)C(C)C)C(C)CC)C(C)C)C(=O)OC (stereo partly specified) | 6
6 | CCC(C)[C@H](NC(=O)[C@@H](NC(=O)C(F)(F)C(=O)[C@H](CC1CCCCC1)NC(=O)[C@@H](NC(=O)OC(C)(C)C)C(C)C)C(C)C)C(=O)OCc1ccccc1 (stereo partly specified) | 6
7 | CCC(C)[C@H](NC(=O)[C@@H](NC(=O)C(F)(F)C(=O)[C@@H](NC(=O)[C@@H](NC(=O)OC(C)(C)C)C(C)C)C(C)C)C(C)C)C(=O)OC (stereo partly specified) | 9
8 | CCC(C)[C@H](NC(=O)[C@@H](NC(=O)C(F)(F)C(=O)[C@H](C)NC(=O)[C@@H](NC(=O)OC(C)(C)C)C(C)C)C(C)C)C(=O)N(C)C (stereo partly specified) | 25
9 | CCC(C)[C@H](NC(=O)[C@@H](NC(=O)C(F)(F)C(=O)[C@@H](NC(=O)[C@@H](NC(=O)OC(C)(C)C)C(C)C)c1ccccc1)C(C)C)C(=O)OC (stereo partly specified) | 9
10 | CCC(C)[C@H](NC(=O)[C@@H](NC(=O)C(F)(F)C(=O)[C@H](C)NC(=O)[C@@H](NC(=O)OC(C)(C)C)C(C)C)C(C)C)C(=O)OC (stereo partly specified) | 15

test: Inhibition of Amyloid beta protein production at 25 uM in Amyloid precursor protein (APP)-transfected Chinese hamster ovary(CHO) cells; assay type: functional; details: Cricetulus griseus

Row | Structure (SMILES) | inhibition at 25 µM [%]
11 | CCC(C)[C@H](NC(=O)[C@@H](NC(=O)C(F)(F)C(=O)[C@H](C)NC(=O)[C@@H](NC(=O)OC(C)(C)C)C(C)C)C(C)C)C(=O)OC (stereo partly specified) | ≥ 65
